Laboratory results reported in patent EP4667483A1, “HUMAN TRANSFERRIN RECEPTOR-BINDING PEPTIDE” (JCR Pharmaceuticals Co., Ltd., priority 2023, dated 2024).
Numbered stars: 1 amine (or outer) side, 2 acyl side, 3 side chain; on linkers, the order of the positions; unused ones are H or OH. Bridge positions count the residues as written; N and C are the ends. Square brackets hold non-standard residues; d marks the D form. Peptide text beside a SMILES is read from it. * marks the point of attachment. CH2CO(D-glucamine) = O=C(C*)NC[C@H](O)[C@@H](O)[C@H](O)[C@H](O)CO; NH(1-deoxy-D-glucityl) = OC[C@@H](O)[C@@H](O)[C@H](O)[C@@H](O)CN*; CH2CON(CH2CH2)2NCH2COOH = O=C(O)CN1CCN(C(=O)C*)CC1; NMePhe(4-COOH) = CN[C@@H](Cc1ccc(C(=O)O)cc1)C(=O)O; X1 = O=C([C@H](Cc1cccc(C(=O)[*:3])c1)N[*:1])[*:2]; Phe(3-COOH) = N[C@@H](Cc1cccc(C(=O)O)c1)C(=O)O; Trp(7-aza) = N[C@@H](Cc1c[nH]c2ncccc12)C(=O)O; NH(CH2CH2O)8Me = COCCOCCOCCOCCOCCOCCOCCOCCN*; NMePhe(3-Cl) = CN[C@@H](Cc1cccc(Cl)c1)C(=O)O; 3Pal(6-NH2) = Nc1ccc(C[C@H](N)C(=O)O)cn1; NMeW = CN[C@@H](Cc1c[nH]c2ccccc12)C(=O)O; Lys(N3) = [N-]=[N+]=NCCCC[C@H](N)C(=O)O; NMeY = CN[C@@H](Cc1ccc(O)cc1)C(=O)O; Nva(3-Et) = CCC(CC)[C@H](N)C(=O)O; NMeF = CN[C@@H](Cc1ccccc1)C(=O)O; PEG4 = NCCOCCOCCOCCOCCC(=O)O; Carboxymethyl = O=C(O)C*

Key:
[1] = biological target: T1, human transferrin receptor (hTfR) (Homo sapiens, UniProt P02786); assay: SPR measurement under pH 6.0 conditions (Biacore T200, NTA chip, immobilized hTfR); format: binding; details: read-out: hTfR SPR pH6.0 KD
Experimental: (§1) Molecular interactions between the synthesized peptides and the transferrin receptor (hTfR) were evaluated by surface plasmon resonance (SPR) using the following method. The specific assay procedure is described below.
An NTA sensor chip (Cytiva) was inserted in a Biacore T200 (Cytiva), a priming operation was performed 3 times with a running buffer: HBS-P+ pH 6.0 (Cytiva), and an equilibrium state was created at a flow rate of 30 µL/min. A ligand immobilization operation was carried out at a flow rate of 10 µL/min.
The surface of the NTA sensor chip was washed with 350 mM EDTA solution, nickel ions were loaded into the carbomethyldextran chains of the sensor chip with a 500 µM aqueous nickel chloride solution, and then washing was performed with 3 mM EDTA solution. After mixing 50 µL of each of 60 mM EDC solution (Cytiva) and 650 mM NHS solution (Cytiva), the mixture was reacted for 420 seconds at a flow rate of 10 µL/min. 150 µL of 0.2 µM hTfR solution was prepared by diluting with 10 mM acetic acid solution (pH 5.0), and reacted for 420 seconds at a flow rate of 10 µL/min to immobilize hTfR on the NTA sensor chip. For the human transferrin receptor (hTfR), the recombinant hTfR described in Example 2 of WO2018/124121 was used. After immobilization, capping was performed by reacting with 1.0 M ethanolamine aqueous solution (Cytiva) at a flow rate of 10 µL/min for 420 seconds. Peptide lysate prepared in DMSO to 10 mM was diluted with the running buffer to a final concentration of 10 µM peptide lysate, and then peptide solutions of 250 nM, 125 nM, 62.5 nM, 25 nM, and 12.5 nM were prepared. The kinetics of the peptide against hTfR was obtained by SPR measurement using the above samples.
(§2) The kinetic evaluation model was single-cycle kinetics, and curve fitting was performed using Biacore T200 Evaluation Software Version 3.0 (Cytiva). The binding of the peptide to hTfR was evaluated by performing curve fitting on the obtained sensorgram by the least squares method and obtaining the kon value, the koff value, and the KD value.

[2] = biological target: T1, human transferrin receptor (hTfR); assay: SPR measurement under pH 7.4 conditions (Biacore T200, CM3 chip, hTfR captured by His Tag antibody); format: binding; details: SPR, pH 7.4
Experimental: as §1
An CM3 sensor chip (Cytiva) was inserted into BiacoreT200 (Cytiva), then a priming operation was performed three times by using a running buffer: HBS-P+, pH7.4 (Cytiva), and an equilibrium state was created at a flow rate of […]. Ligand immobilization was performed at a flow rate of 10 µL/min. After mixing 50 µL each of 60 mM EDC solution (Cytiva) and 650 mM NHS solution (Cytiva), the mixture was reacted at a flow rate of 10 µL/min for 420 seconds. 150 µL of […] THE His Tag Antibody, mAb, Mouse (GenScript) was prepared by diluting with 10 mM acetic acid solution (pH 5.0), and reacted at a flow rate of 10 µL/ min for 420 seconds. Then, THE His Tag Antibody, mAb, Mouse (GenScript) was immobilized as a capture molecule on the CM3 sensor chip. After immobilization, capping was performed by reacting with 1.0 M ethanolamine solution (Cytiva) at a flow rate of 10 µL/min for 420 seconds. 300 nM hTfR was captured at a flow rate of 10 µL/min, a peptide solution prepared at 10 mM in DMSO was diluted with running buffer to achieve a final concentration of 10 µM, and peptide solutions at 250 nM, 125 nM, 62.5 nM, 25 nM, and 12.5 nM were prepared. . The peptide samples were reacted at a flow late of 30 µL/min for 120 seconds, followed by dissociation for 600 seconds. The kinetics of the peptide against hTfR was obtained by SPR measurement for the above samples.
as §2

[3] = Table 2-1-2, read-out: hTfR SPR pH7.4 KD(n M)
[4] = Table 2-2, read-out: hTfR SPR pH7.4 KD

T1 sequence (P02786 whole entry): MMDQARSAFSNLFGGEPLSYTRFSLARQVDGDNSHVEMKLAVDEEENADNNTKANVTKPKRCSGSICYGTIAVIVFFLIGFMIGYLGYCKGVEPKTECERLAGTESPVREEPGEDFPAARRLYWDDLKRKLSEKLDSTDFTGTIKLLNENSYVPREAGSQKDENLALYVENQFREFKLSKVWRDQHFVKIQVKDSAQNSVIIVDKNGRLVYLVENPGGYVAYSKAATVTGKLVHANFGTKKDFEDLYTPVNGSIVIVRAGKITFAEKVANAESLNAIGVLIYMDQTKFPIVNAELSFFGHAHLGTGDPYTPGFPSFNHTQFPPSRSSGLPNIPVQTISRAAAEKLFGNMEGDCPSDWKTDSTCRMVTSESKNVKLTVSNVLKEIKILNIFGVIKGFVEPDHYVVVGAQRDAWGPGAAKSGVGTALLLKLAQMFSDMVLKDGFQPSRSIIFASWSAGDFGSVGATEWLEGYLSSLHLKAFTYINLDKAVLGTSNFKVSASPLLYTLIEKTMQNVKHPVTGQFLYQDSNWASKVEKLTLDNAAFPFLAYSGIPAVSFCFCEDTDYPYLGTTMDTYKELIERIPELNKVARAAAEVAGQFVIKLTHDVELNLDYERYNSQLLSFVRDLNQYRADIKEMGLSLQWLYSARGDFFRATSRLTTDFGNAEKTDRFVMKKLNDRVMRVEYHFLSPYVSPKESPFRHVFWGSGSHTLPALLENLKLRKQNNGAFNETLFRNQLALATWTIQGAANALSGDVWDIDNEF

Structure (SMILES)	Kd [2, 3]	Kd [2, 4]	further results
CC[C@H](C)[C@@H]1NC(=O)[C@H](Cc2ccc(OCC(=O)NC[C@H](O)[C@@H](O)[C@H](O)[C@H](O)CO)cc2)NC(=O)[C@H](Cc2ccc(O)cc2)NC(=O)[C@H](CC(N)=O)NC(=O)[C@H](Cc2c[nH]c3ccccc23)NC(=O)[C@H](C(C)C)NC(=O)[C@H](Cc2cccc(Cl)c2)N(C)C(=O)[C@H](C(C)C)NC(=O)[C@H](C)NC(=O)CSC[C@@H](C(=O)NCCOCCOCCOCCOCCC(N)=O)NC(=O)[C@H](Cc2ccc(O)cc2)N(C)C(=O)[C@H](Cc2ccccc2)NC(=O)[C@H](CCC(N)=O)NC(=O)[C@H](CCC(=O)NC[C@H](O)[C@@H](O)[C@H](O)[C@H](O)CO)NC(=O)[C@H]([C@@H](C)CC)NC1=O [compound 39] ({CH2CO}-AV[NMePhe(3-Cl)]VWNYY(CH2CO(D-glucamine))IIE(NH(1-deoxy-D-glucityl))QF[NMeY]C[PEG4]-NH2; thioether N-15)	–	–	Kd ([1]; pH 6.0, single-cycle kinetics): 0.0124 µM
CCC(CC)[C@@H]1NC(=O)[C@H](Cc2ccc(O)cc2)NC(=O)[C@H](Cc2ccc(O)cc2)NC(=O)[C@H](CC(N)=O)NC(=O)[C@H](Cc2c[nH]c3ccccc23)N(C)C(=O)[C@H](C(C)C)NC(=O)[C@H](Cc2ccccc2)N(C)C(=O)[C@H](C(C)C)NC(=O)[C@H](C)NC(=O)CSC[C@@H](C(=O)NCCOCCOCCOCCOCCC(N)=O)NC(=O)[C@H](Cc2ccc(O)cc2)N(C)C(=O)[C@H](Cc2ccc(O)cc2)NC(=O)[C@H](CCCNC(=N)N)NC(=O)[C@H](CCCCN)NC(=O)[C@H]([C@@H](C)CC)NC1=O [compound 117]	–	–	Kd ([1]; SPR, pH 6.0, peptide with the linker named in the table): 0.0138 µM
CC[C@H](C)[C@@H]1NC(=O)[C@H](Cc2ccc(OCC(=O)N3CCN(CC(=O)O)CC3)cc2)NC(=O)[C@H](Cc2ccc(N)nc2)NC(=O)[C@H](CC(N)=O)NC(=O)[C@H](Cc2c[nH]c3ncccc23)NC(=O)[C@H](C(C)C)NC(=O)[C@H](Cc2cccc(Cl)c2)N(C)C(=O)[C@H](C(C)C)NC(=O)[C@H](C)NC(=O)CSC[C@@H](C(=O)NCCOCCOCCOCCOCCC(N)=O)NC(=O)[C@H](Cc2ccc(O)cc2)N(C)C(=O)[C@H](Cc2cccc(C(=O)O)c2)NC(=O)[C@H](CCCNC(=N)N)NC(=O)[C@H](CCC(=O)NCCOCCOCCOCCOCCOCCOCCOCCOC)NC(=O)[C@H]([C@@H](C)CC)NC1=O [compound 159] ({CH2CO}-AV[NMePhe(3-Cl)]V[Trp(7-aza)]N[3Pal(6-NH2)]Y(CH2CON(CH2CH2)2NCH2COOH)IIE(NH(CH2CH2O)8Me)R[Phe(3-COOH)][NMeY]C[PEG4]-NH2; thioether N-15)	0.00655 µM	–	–
CC[C@H](C)[C@@H]1NC(=O)[C@H](Cc2ccc(OCC(=O)N3CCN(CC(=O)O)CC3)cc2)NC(=O)[C@H](Cc2ccc(N)nc2)NC(=O)[C@H](CC(N)=O)NC(=O)[C@H](Cc2cn(CC(=O)O)c3ccccc23)NC(=O)[C@H](C(C)C)NC(=O)[C@H](Cc2cccc(Cl)c2)N(C)C(=O)[C@H](C(C)C)NC(=O)[C@H](C)NC(=O)CSC[C@@H](C(=O)NCCOCCOCCOCCOCCC(N)=O)NC(=O)[C@H](Cc2ccc(O)cc2)N(C)C(=O)[C@H](Cc2ccncc2)NC(=O)[C@H](CCCNC(=N)N)NC(=O)[C@H](CCC(=O)NCCOCCOCCOCCOCCOCCOCCOCCOC)NC(=O)[C@H]([C@@H](C)CC)NC1=O [compound 160]	0.0208 µM	–	–
CCC(CC)[C@@H]1NC(=O)[C@H](Cc2ccc(OCC(=O)O)cc2)NC(=O)[C@H](Cc2ccc(N)nc2)NC(=O)[C@H](CC(N)=O)NC(=O)[C@H](Cc2c[nH]c3ncccc23)NC(=O)[C@H](C(C)C)NC(=O)[C@H](Cc2cccc(Cl)c2)N(C)C(=O)[C@H](C(C)C)NC(=O)[C@H](C)NC(=O)CSC[C@@H](C(=O)NCCOCCOCCOCCOCCC(N)=O)NC(=O)[C@H](Cc2ccc(C(=O)O)cc2)N(C)C(=O)[C@H](Cc2cccc(C(=O)O)c2)NC(=O)[C@H](CCCNC(=N)N)NC(=O)[C@H](CCC(=O)NCCOCCOCCOCCOCCOCCOCCOCCOC)NC(=O)[C@H]([C@@H](C)CC)NC1=O [compound 161] ({CH2CO}-AV[NMePhe(3-Cl)]V[Trp(7-aza)]N[3Pal(6-NH2)]Y(Carboxymethyl)[Nva(3-Et)]IE(NH(CH2CH2O)8Me)R[Phe(3-COOH)][NMePhe(4-COOH)]C[PEG4]-NH2; thioether N-15)	12.2 µM	–	–
CCC(CC)[C@@H]1NC(=O)[C@H](Cc2ccc(O)cc2)NC(=O)[C@H](Cc2ccc(O)cc2)NC(=O)[C@H](CC(N)=O)NC(=O)[C@H](Cc2c[nH]c3ccccc23)N(C)C(=O)[C@H](C(C)C)NC(=O)[C@H](Cc2ccccc2)N(C)C(=O)[C@H](C(C)C)NC(=O)[C@H](C)NC(=O)CSC[C@@H](C(=O)NCC(=O)N[C@@H](CCCCN=[N+]=[N-])C(N)=O)NC(=O)[C@H](Cc2ccc(O)cc2)N(C)C(=O)[C@H](Cc2cccc(C(=O)NCCOCCOCCOCCOCCC(=O)O)c2)NC(=O)[C@H](CCCNC(=N)N)NC(=O)[C@H](CCCCN)NC(=O)[C@H]([C@@H](C)CC)NC1=O [compound 195] ({CH2CO}-AV[NMeF]V[NMeW]NYY[Nva(3-Et)]IKR[X1](PEG4)[NMeY]CG[Lys(N3)]-NH2; thioether N-15)	–	–	Kd ([2]; Table 1-3-2-2, read-out: hTfR SPR pH7.4 KD): 0.00577 µM
CC[C@H](C)[C@@H]1NC(=O)[C@H](Cc2ccc(OC)cc2)NC(=O)[C@H](Cc2ccc(N)nc2)NC(=O)[C@H](CC(N)=O)NC(=O)[C@H](Cc2cnc3ccccn23)NC(=O)[C@H](C(C)C)NC(=O)[C@H](Cc2cccc(Cl)c2)N(C)C(=O)[C@H](C(C)C)NC(=O)[C@H](C)NC(=O)CSC[C@@H](C(=O)NCC(=O)N[C@H](CCC(=O)O)C(=O)N[C@H](CCC(=O)O)C(=O)N[C@H](CCC(=O)O)C(=O)N[C@H](CO)C(=O)N[C@H](CO)C(=O)N[C@@H](CCCCN=[N+]=[N-])C(N)=O)NC(=O)[C@H](Cc2ccc(C(=O)O)cc2)N(C)C(=O)[C@H](Cc2ccncc2)NC(=O)[C@H](CCCNC(=N)N)NC(=O)[C@H](CCCNC(=N)N)NC(=O)[C@H]([C@@H](C)CC)NC1=O [compound 200]	–	0.0816 µM	–
CC[C@H](C)[C@@H]1NC(=O)[C@H](Cc2ccc(OC)cc2)NC(=O)[C@H](Cc2ccc(N)nc2)NC(=O)[C@H](CC(N)=O)NC(=O)[C@H](Cc2cnc3ccccn23)NC(=O)[C@H](C(C)C)NC(=O)[C@H](Cc2ccccc2)N(C)C(=O)[C@H](C(C)C)NC(=O)[C@H](C)NC(=O)CSC[C@@H](C(=O)NCC(=O)N[C@H](CCC(=O)O)C(=O)N[C@H](CCC(=O)O)C(=O)N[C@H](CCC(=O)O)C(=O)N[C@H](CO)C(=O)N[C@H](CO)C(=O)N[C@@H](CCCCN=[N+]=[N-])C(N)=O)NC(=O)[C@H](Cc2ccc(C(=O)O)cc2)N(C)C(=O)[C@H](Cc2ccncc2)NC(=O)[C@H](CCCNC(=N)N)NC(=O)[C@H](CCCNC(=N)N)NC(=O)[C@H]([C@@H](C)CC)NC1=O [compound 201]	–	0.212 µM	–
CC[C@H](C)[C@@H]1NC(=O)[C@H](Cc2ccc(OC)cc2)NC(=O)[C@H](Cc2ccc(N)nc2)NC(=O)[C@H](CC(N)=O)NC(=O)[C@H](Cc2cnc3ccccn23)NC(=O)[C@H](C(C)C)NC(=O)[C@H](Cc2ccccc2)N(C)C(=O)[C@H](C(C)C)NC(=O)[C@H](C)NC(=O)CSC[C@@H](C(=O)NCC(=O)N[C@H](CCC(=O)O)C(=O)N[C@H](CCC(=O)O)C(=O)N[C@H](CCC(=O)O)C(=O)N[C@H](CO)C(=O)N[C@H](CO)C(=O)N[C@@H](CCCCN=[N+]=[N-])C(N)=O)NC(=O)[C@H](Cc2ccc(O)cc2)N(C)C(=O)[C@H](Cc2ccncc2)NC(=O)[C@H](CCCNC(=N)N)NC(=O)[C@H](CCCNC(=N)N)NC(=O)[C@H]([C@@H](C)CC)NC1=O [compound 202]	–	0.515 µM	–
